These results are taken from patent publication US20070203163A1, “Novel Treatment Of Irritable Bowel Syndrome 1” (priority 2003, published 2007).

Each structure is given as a SMILES string.

In this experiment the test system is visceromotor response to colorectal distension. Briefly: Visceromotor response to isobaric colorectal distension in rats. Format: in vivo, rats (Sprague Dawley). From the text:
In this study the effect of acute administration of a compound on the visceromotor response to isobaric colorectal distension in rats is investigated (Ritchie J. Pain from distension of the pelvic colon by inflating a balloon in the irritable bowel syndrome. Gut 1973; 6: 105-112. Ness T J, Gebhart G F. Colorectal distension as a noxious visceral stimulus: physiological and pharmacological characterization of pseudoeffective reflexes in the rat. Brain Research 1988; 450: 153-169).
Colorectal distension (CRD) is performed in all rats (Sprague Dawley) using a paradigm of 12 consecutive distensions (or pulses) at 80 mmHg for 30 seconds each with 4.5 minute intervals (12×80 mmHg). The visceromotor respbnse is determined by quantifying phasic changes in the balloon pressure, which is processed by specially designed computer software. The compound is dissolved in saline and administered at the doses of 1, 3 and 10 μmol/kg. The compound is given intravenously in a volume of 1 mL/kg between the third and fourth distension.

Turning to `COCc1cc(C#N)cc(-c2nc(-c3ccc(F)cn3)no2)c1` [3-[3-(5-Fluoro-pyridin-2-yl)-[1,2,4]oxadiazol-5-yl]-5-methoxymethyl-benzonitrile], the “effect on visceromotor response (VMR) to colorectal distension” value (1 μmol/kg i.v.) is “transient inhibitory effect”.

Regarding `Cc1cccc(C#Cc2ccccc2)n1` [MPEP, 2-methyl-6-(phenylethynyl)-pyridine], the “effect on visceromotor response (VMR) to colorectal distension” value by setting is: (1 μmol/kg i.v.) “No effect”; (3 μmol/kg i.v.) “modest effect during a few distensions only”; (10 μmol/kg i.v.) “decreased the visceromotor response (VMR)”. Besides, the “average visceromotor response (VMR) during colorectal distension, relative to vehicle treated (100±19)” value (10 μmol/kg i.v., CRD 12×80 mmHg, mean±SEM, n=8) amounted to 46±11%.
